The values that follow are results of earlier work, collected in patent US20210386978A1, “Drug Delivery Devices and Systems for Local Drug Delivery to the Upper Urinary Tract” (TARIS Biomedical LLC, priority 2018, published 2021).

Structures can show the parent of a compound that is named as a salt.

The conditions of this data set: solubility terms in the same block are defined in water at 37° C.
Consider `Cc1ccc(O)c([C@H](CCN(C(C)C)C(C)C)c2ccccc2)c1` [tolterodine tartrate], for which the approximate solubility is about 12 mg/mL. `O=C(O[C@H]1C[C@H]2CC[C@@H](C1)[N+]21CCCC1)C(O)(c1ccccc1)c1ccccc1` [trospium chloride]: the approximate solubility is on record as about 500 mg/mL. For `Nc1ccn([C@@H]2O[C@H](CO)[C@@H](O)C2(F)F)c(=O)n1` [gemcitabine base], the approximate solubility was about 15 mg/mL. For `Nc1ccn([C@@H]2O[C@H](CO)[C@@H](O)C2(F)F)c(=O)n1` [gemcitabine HCl], the approximate solubility is listed as about 80 mg/mL.
